Reference: patent US11667645B2, “Granzyme B directed imaging and therapy” (CytoSite Biopharma Inc., priority 2018, dated 2023)

Molecular target: Granzyme B (human lymphocytes) (Homo sapiens (Human), UniProt P10144)
Test: human Granzyme B biochemical assay
Settings: Granzyme B (human lymphocytes) 5 nM, substrate Ac-IETD-AFC 200 μM, Cpd incubation with enzyme 30 mins, 22° C., read time 60 mins; read-out: IC50
Source text: The compounds of Formula I-VIII described above can be tested using the human Granzyme B biochemical assay provided below.
Materials: • 1. Granzyme B (human lymphocytes) Enzyme: Enzo Lifesciences, Cat #ALX-200-602-0010 • 2. Substrate (Ac-IETD-AFC): Enzo Lifesciences, Cat #ALX-260-110-M010 • 3. Standard inhibitor (Compound 20-Isomer3): Synthesized internally in TCG • 4. Dimethyl sulfoxide (DMSO): Sigma-Aldrich, Cat #41639 • 5. HEPES: Gibco, Cat #15630-080 • 6. Calcium chloride: Sigma-Aldrich, Cat #C-5080 • 7. Distilled water: Gibco, Cat #15230-162 • 8. Bovine serum albumin (BSA): Sigma-Aldrich, Cat #A3059 • 9. Black, clear bottom PDL plate (384 wells): Greiner bio-one, Cat #781946 • 10. Polypropylene plate (384 wells): Corning, Cat #3657 Assay Buffer Composition:
Compound Preparation: • 1. DMSO is added to the respective compound vial to make 10 mM Compound stock solution, which is stored at −20° C. • 2. 10 mM Compound stock solution is thawed and 1 mM DMSO stock solution is prepared by adding 45 μl of DMSO to 5 μl of 10 mM compound stock solution. • 3. 1 mM DMSO stock solution is serially diluted (3.16 fold) by adding 10 μl of 1 mM DMSO stock to 21.6 μl of DMSO and mixed well. 10 μl of the resulting solution is then added to 21.6 μl of DMSO and mixed well. This process is continued to create 11 dilution points for the assay standard inhibitor and 8 dilution points for test compounds in 384 well polypropylene plate. • 4. 2 μl of each dilution are dispensed in assay ready plate. • 5. Each well is then diluted 25 fold by adding 48 μl of assay buffer to 2 μl of compound in assay ready plate to make Compound working stock. Enzyme Preparation: • 1. Supplied Granzyme B (human lymphocytes) enzyme is reconstituted to 1 mg/ml (about 31.25 μM) and 1 μl aliquots are kept in −80° C. • 2. 1 μl aliquot is diluted to 625 nM by adding 49 μl of assay buffer containing 0.1% BSA and gently mixed. • 3. 10 nM enzyme working stock is prepared by adding assay buffer containing 0.1% BSA. Substrate Preparation: • 1. Supplied substrate (Ac-IETD-AFC) is reconstituted by adding DMSO to make 10 mM stock, aliquoted and stored in −80° C. • 2. 4 mM substrate mid stock is prepared by adding DMSO. • 3. Substrate working stock i.e. 800 μM is prepared by adding assay buffer. Assay Protocol: • 1. 10 μl of serially diluted Compound working stock (start dose 40 μM) is added from assay ready plate to assay plate according to the plate map. • 2. Positive control (40 μM of standard inhibitor) and negative control (4% DMSO buffer) are added to the respective wells. • 3. 20 μl of Enzyme working stock is added to assay plate and gently mixed. • 4. The plate is incubated at 22° C. for 30 mins and spun at 130 g for 1 minute. • 5. After incubation, 10 μl of Substrate working stock is added to respective wells and mixed (Assay plate is maintained in dark after substrate addition). • 6. The plate is incubated at 22° C. for 60 mins and spun at 130 g for 1 minute. • 7. Fluorescence read (RFU) (Ex: 400 nm/Em: 505 nm) is taken after 60 mins in EnVision Multimode plate reader. Final Assay Concentration:
Data Analysis: • 1. The RFU read is analyzed to calculate percent inhibition by normalizing with positive and negative controls taken as 100% and 0% effect respectively in Microsoft excel. • 2. Graph is generated by putting the analyzed data in GraphPad prism 5.0 software to get IC50 value for each compound.

Granzyme B (human lymphocytes), sequence (P10144 21-247): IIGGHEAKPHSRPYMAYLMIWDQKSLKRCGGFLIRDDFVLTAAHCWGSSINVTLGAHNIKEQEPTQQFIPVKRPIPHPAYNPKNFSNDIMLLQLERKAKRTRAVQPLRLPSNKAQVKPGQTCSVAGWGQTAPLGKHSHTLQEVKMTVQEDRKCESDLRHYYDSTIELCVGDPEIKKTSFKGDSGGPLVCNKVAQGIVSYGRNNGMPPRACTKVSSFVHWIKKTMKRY

| SMILES | IC50 |
| --- | --- |
| COC(=O)[C@H](CO)NC(=O)[C@@H]1Cc2cccc3c2N1C(=O)[C@@H](NC(=O)[C@@H](NC(C)=O)C(C)C)CC3 [Compound C091, (S)-2-{[(2S,5S)-5-((S)-2-Acetylamino-3-methyl-butyrylamino)-4-oxo-1,2,4,5,6,7-hexahydro-azepino[3,2,1-hi]indole-2-carbonyl]-amino}-3-hydroxy-propionic acid methyl ester] | > 5 µM |
| CC[C@H](C)[C@H](NC(=O)COCCF)C(=O)N[C@H]1CCc2cccc3c2N(C1=O)[C@H](C(=O)NCc1cccc(Cl)c1)C3 [Compound C131, (2S,5S)-5-{(2S,3S)-2-[2-(2-Fluoro-ethoxy)-acetylamino]-3-methyl-pentanoylamino}-4-oxo-1,2,4,5,6,7-hexahydro-azepino[3,2,1-hi]indole-2-carboxylic acid 3-chloro-benzylamide] | > 5 µM |
| CC[C@H](C)[C@H](NC(=O)COCCF)C(=O)N[C@H]1CCc2cccc3c2N(C1=O)[C@H](C(=O)NCc1cccc(C)c1)C3 [Compound C128, (2S,5S)-5-{(2S,3S)-2-[2-(2-Fluoro-ethoxy)-acetylamino]-3-methyl-pentanoylamino}-4-oxo-1,2,4,5,6,7-hexahydro-azepino[3,2,1-hi]indole-2-carboxylic acid 3-methyl-benzylamide] | > 5 µM |
| CC[C@H](C)[C@H](NC(=O)COCCF)C(=O)N[C@H]1CCc2cccc3c2N(C1=O)[C@H](C(=O)NCc1ccc[nH]1)C3 [Compound C104, (2S,5S)-5-{(2S,3S)-2-[2-(2-Fluoro-ethoxy)-acetylamino]-3-methyl-pentanoylamino}-4-oxo-1,2,4,5,6,7-hexahydro-azepino[3,2,1-hi]indole-2-carboxylic acid (1H-pyrrol-2-ylmethyl)-amide] | > 5 µM |
| CC[C@H](C)[C@H](NC(=O)COCCF)C(=O)N[C@H]1CCc2cccc3c2N(C1=O)[C@H](C(=O)NCc1cc[nH]c1)C3 [Compound C107, (2S,5S)-5-{(2S,3S)-2-[2-(2-Fluoro-ethoxy)-acetylamino]-3-methyl-pentanoylamino}-4-oxo-1,2,4,5,6,7-hexahydro-azepino[3,2,1-hi]indole-2-carboxylic acid (1H-pyrrol-3-ylmethyl)-amide] | > 5 µM |
| CC[C@H](C)[C@H](NC(=O)COCCF)C(=O)N[C@H]1CCc2cccc3c2N(C1=O)[C@H](C(=O)NCc1ccccc1C)C3 [Compound C127, (2S,5S)-5-{(2S,3S)-2-[2-(2-Fluoro-ethoxy)-acetylamino]-3-methyl-pentanoylamino}-4-oxo-1,2,4,5,6,7-hexahydro-azepino[3,2,1-hi]indole-2-carboxylic acid 2-methyl-benzylamide] | > 5 µM |
| CC(=O)N[C@H](C(=O)N[C@H]1CCc2cccc3c2N(C1=O)[C@H](C(=O)N[C@H](C)C(=O)O)C3)C(C)C [Compound C087, (R)-2-{[(2S,5S)-5-((S)-2-Acetylamino-3-methyl-butyrylamino)-4-oxo-1,2,4,5,6,7-hexahydro-azepino[3,2,1-hi]indole-2-carbonyl]-amino}-propionicacid] | > 5 µM |

The remaining lines, values ahead:

| IC50 | SMILES |
| --- | --- |
| 0.001 to 0.3 µM | CC[C@H](C)[C@H](NC(=O)Cc1cc2ccccc2o1)C(=O)N[C@H]1CCc2cccc3c2N(C1=O)[C@H](C(=O)NCc1c[nH]nn1)C3 [Compound C159, (2S,5S)-5-[(2S,3S)-2-(2-Benzofuran-2-yl-acetylamino)-3-methyl-pentanoylamino]-4-oxo-1,2,4,5,6,7-hexahydro-azepino[3,2,1-hi]indole-2-carboxylic acid (1H-[1,2,3]triazol-4-ylmethyl)-amide] |
| 0.301 to 1 µM | CC(C)C[C@H](NC(=O)c1ccccc1)C(=O)N[C@H]1CCc2cccc3c2N(C1=O)[C@H](C(=O)NCc1c[nH]nn1)C3 [Compound C038, (2S,5S)-5-((S)-2-Benzoylamino-4-methyl-pentanoylamino)-4-oxo-1,2,4,5,6,7-hexahydro-azepino[3,2,1-hi]indole-2-carboxylic acid (1H-[1,2,3]triazol-4-ylmethyl)-amide] |
| > 5 µM | CC(=O)NCC(=O)N[C@H]1CCc2cccc3c2N(C1=O)[C@H](C(=O)NCc1c[nH]nn1)C3 [Compound C023, (2S,5S)-5-(2-Acetylamino-acetylamino)-4-oxo-1,2,4,5,6,7-hexahydro-azepino[3,2,1-hi]indole-2-carboxylic acid (1H-[1,2,3]triazol-4-ylmethyl)-amide] |
| > 5 µM | N[C@H]1CCc2cccc3c2N(C1=O)[C@H](C(=O)NCc1c[nH]nn1)C3 [Compound C147, (2S,5S)-5-Amino-4-oxo-1,2,4,5,6,7-hexahydro-azepino[3,2,1-hi]indole-2-carboxylic acid (1H-[1,2,3]triazol-4-ylmethyl)-amide] |
| 0.001 to 0.3 µM | CC[C@H](C)[C@H](NC(=O)CC1Cc2ccccc2O1)C(=O)N[C@H]1CCc2cccc3c2N(C1=O)[C@H](C(=O)NCc1c[nH]nn1)C3 (stereo partly drawn) [Compound C173, (2S,5S)-5-[(2S,3S)-2-(2-2,3-Dihydro-benzofuran-2-yl-acetylamino)-3-methyl-pentanoylamino]-4-oxo-1,2,4,5,6,7-hexahydro-azepino[3,2,1-hi]indole-2-carboxylic acid (1H-[1,2,3]triazol-4-ylmethyl)-amide] |
| > 5 µM | CC(C)(NC(=O)Cc1csc2ccccc12)C(=O)N[C@H]1CCc2cccc3c2N(C1=O)[C@H](C(=O)NCc1c[nH]nn1)C3 [Compound C044, (2S,5S)-5-[2-(2-Benzo[b]thiophen-3-yl-acetylamino)-2-methyl-propionylamino]-4-oxo-1,2,4,5,6,7-hexahydro-azepino[3,2,1-hi]indole-2-carboxylic acid (1H-[1,2,3]triazol-4-ylmethyl)-amide] |
| > 5 µM | C[C@H](NC(=O)Cc1ccccc1)C(=O)N[C@H]1CCc2cccc3c2N(C1=O)[C@H](C(=O)NCc1c[nH]nn1)C3 [Compound C013, (2S,5S)-4-Oxo-5-((S)-2-phenylacetylamino-propionylamino)-1,2,4,5,6,7-hexahydro-azepino[3,2,1-hi]indole-2-carboxylic acid (1H-[1,2,3]triazol-4-ylmethyl)-amide] |
| > 5 µM | O=C(Cc1ccccc1)N[C@@H](CO)C(=O)N[C@H]1CCc2cccc3c2N(C1=O)[C@H](C(=O)NCc1c[nH]nn1)C3 [Compound C018, (2S,5S)-5-((S)-3-Hydroxy-2-phenylacetylamino-propionylamino)-4-oxo-1,2,4,5,6,7-hexahydro-azepino[3,2,1-hi]indole-2-carboxylic acid (1H-[1,2,3]triazol-4-ylmethyl)-amide] |
| 0.001 to 0.3 µM | CC[C@H](C)[C@H](NC(=O)c1cccc(OC)c1)C(=O)N[C@H]1CCc2cccc3c2N(C1=O)[C@H](C(=O)NCc1c[nH]nn1)C3 [Compound C061, (2S,5S)-5-[(2S,3S)-2-(3-Methoxy-benzoylamino)-3-methyl-pentanoylamino]-4-oxo-1,2,4,5,6,7-hexahydro-azepino[3,2,1-hi]indole-2-carboxylic acid(1H-[1,2,3]triazol-4-ylmethyl)-amide] |
| 0.001 to 0.3 µM | CC(=O)N[C@H](C(=O)N[C@H]1CCc2cccc3c2N(C1=O)[C@H](C(=O)NCc1c[nH]nn1)C3)C1CCC1 [Compound C083, (2S,5S)-5-((S)-2-Acetylamino-2-cyclobutyl-acetylamino)-4-oxo-1,2,4,5,6,7-hexahydro-azepino[3,2,1-hi]indole-2-carboxylic acid (1H-[1,2,3]triazol-4-ylmethyl)-amide] |
